From the supplement of paper PMC11061612 come the findings set out here.

Assay [1] has as its system PEO1 (Ovarian Carcinoma). Description: Bliss excess, mean over the matrix (fraction); higher = more synergy. The gist of the method: (§1)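 Cell lines grown in DMEM/F12 or RPMI with 10% FBS were plated in 1536-well plates and held 24 hours at 37°C, 5% CO2 before 72 hours of exposure to two-drug dose matrices, with DMSO typically at 0.2%. CellTiter-Glo 2.0 luminescence gave viability, which was converted to inhibition. Vehicle wells were set to 0 and blank wells to 1. Combination Emax is the second-highest inhibition in the matrix, and Bliss excess is the observed combination effect minus the expected EA + EB − EA·EB, where EA and EB are the single-agent effects.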

The test system of assay [2] is 22RV1 (Prostate Carcinoma). Described as above. The gist of the method:
as §1

Assay [3] deals with KYSE-220 (Esophageal Squamous Cell Carcinoma). The description is as above. The gist of the method:
as §1

Assay [4] relates to COLO-792 (Melanoma). The assay is described as above. In outline:
as §1

Assay [5] deals with NCI-H2087 (Lung Adenocarcinoma). The description is as above. The gist of the method: as §1
Assay [6] relates to NCI-H716 (Colorectal Carcinoma). Described as above. In outline: as §1
For assay [7], the system named is KP-N-YN (Neuroblastoma). The description is as above. In outline:
as §1

Assay [8] has as its system UACC-812 (Breast Carcinoma). The description is as above. In outline: as §1
The subject of assay [9] is TE-10 (Esophageal Squamous Cell Carcinoma). The assay is described as above. In outline:
as §1

For assay [10], the system named is A204 (Rhabdomyosarcoma). The assay is described as above. In outline:
as §1

The subject of assay [11] is NCI-H1703 (Squamous Cell Lung Carcinoma). The assay is described as above. In outline: as §1
The test system of assay [12] is TE-10 (Esophageal Squamous Cell Carcinoma). Description: combination Emax (second highest fraction inhibited in the dose matrix, 72 h); higher = more inhibition; extreme values may be limits of the assay. In outline:
as §1

Each structure is given as a SMILES string.
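For Bliss excess, mean over the matrix in this document: after 72 h of two-drug dosing.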

Take `COc1cccc2c1C(=O)c1c(O)c3c(c(O)c1C2=O)C[C@@](O)(C(=O)CO)C[C@@H]3O[C@H]1C[C@H](N)[C@H](O)[C@H](C)O1` [Doxorubicin] + Cc1cc2ncnn2cc1Nc1ncc2c(n1)n(C1CCOCC1)c(=O)n2C [AZD7648] (first compound max 1 µM, 7x7, partner max 10 µM): the Bliss excess is -0.0214 in assay [1]; -0.0351 in assay [2]; 0.0232 in [3]; -0.0081 in [4]; 0.0107 in [5]; 0.0113 in assay [6]. Also, the Bliss excess was 0.0805 in assay [7]; -0.023 in assay [8]; 0.0583 in assay [9]; 0.0782 in assay [10]; 0.0451 in assay [11]. In addition, the “combination Emax” value in [12] was 0.746.

Consider `COc1cccc(OCCCN)c1-c1cc(Nc2cnc(C#N)cn2)n[nH]1` [Prexasertib] + CCc1c2c(nc3ccc(O)cc13)-c1cc3c(c(=O)n1C2)COC(=O)[C@]3(O)CC [SN-38] (first compound max 1 µM, 7x7, partner max 0.3 µM), for which the Bliss excess was -0.0015 in assay [1]; -0.0649 in [2]; -0.0153 in assay [3]; 0.087 in assay [4]; -0.0495 in assay [5]; 0.0825 in [6]. The Bliss excess in [7] is -0.0158; in assay [8], -0.0633; in [9] it was -0.0428; in [10], -0.0375; in assay [11], -0.0374. The “combination Emax” value in [12] was 0.939.

On to `C=CCn1c(=O)c2cnc(Nc3ccc(N4CCN(C)CC4)cc3)nc2n1-c1cccc(C(C)(C)O)n1` [AZD1775] + O=C(c1cc(Cc2n[nH]c(=O)c3ccccc23)ccc1F)N1CCN(C(=O)C2CC2)CC1 [Olaparib] (first compound max 1 µM, partner max 10 µM), for which the Bliss excess in assay [1] was -0.013; in assay [2], -0.0296; in assay [3] it was -0.0428; in assay [4], -0.0241; in assay [5], -0.0212; in [6], -0.0695. The Bliss excess in assay [7] is -0.144; in assay [8], -0.023; in [9], -0.0196; in assay [10], -0.0881; in [11], -0.0267. The “combination Emax” value in [12] is 0.858.

On to `CC1(C)CCC(CN2CCN(c3ccc(C(=O)NS(=O)(=O)c4ccc(NCC5CCOCC5)c([N+](=O)[O-])c4)c(Oc4cnc5[nH]ccc5c4)c3)CC2)=C(c2ccc(Cl)cc2)C1` [Venetoclax] + C[C@@H]1COCCN1C2=NC(=NC(=C2)C3(CC3)[S@](=N)(=O)C)C4=C5C=CNC5=NC=C4 [AZD6738] (first compound max 1 µM, 7x7, partner max 10 µM), for which the Bliss excess is -0.0038 in assay [1]; -0.0368 in assay [2]; -0.0398 in [3]; 0.03 in assay [4]; -0.0511 in assay [5]; -0.0015 in assay [6]. Moreover, the Bliss excess in [7] is -0.0619; in [8] it was 0.0003; in assay [9] it was -0.0361; in assay [10] it was -0.0355; in assay [11], -0.0216. Also, the “combination Emax” value in [12] was found to be 0.827.

Regarding `CN(C)CCCOc1ccc(-c2ccc3ncc4c(c3c2)n(C2CCOCC2)c(=O)n4C)cn1` [AZD0156] + CCN(CCO)CCCOc1ccc2c(Nc3cc(CC(=O)Nc4cccc(F)c4)[nH]n3)ncnc2c1 [AZD2811] (first compound max 1 µM, 7x7, partner max 1 µM), the Bliss excess in assay [1] is -0.0421; in assay [2] it was -0.0279; in assay [3], -0.0095; in [4], 0.0167; in [5], -0.0251; in assay [6] it was -0.0063. For the same compound, the Bliss excess in [7] is 0.0037; in assay [8] it was -0.0171; in assay [9] it was 0.0126; in assay [10], -0.0335; in assay [11], 0.0059. The “combination Emax” value in assay [12] was determined as 0.332.

As for `CCc1c2c(nc3ccc(O)cc13)-c1cc3c(c(=O)n1C2)COC(=O)[C@]3(O)CC` [SN-38] + CN(C)CCCOc1ccc(-c2ccc3ncc4c(c3c2)n(C2CCOCC2)c(=O)n4C)cn1 [AZD0156] (first compound max 0.3 µM, 7x7, partner max 1 µM), the Bliss excess was -0.0037 in assay [1]; 0.0403 in assay [2]; 0.0574 in [3]; -0.011 in assay [4]; 0.0485 in assay [5]; 0.0129 in assay [6]. Besides, the Bliss excess in [7] turned out to be 0.0238; in [8], 0.034; in assay [9] it was 0.0444; in [10], 0.0736; in assay [11] it was 0.0117. Also, in assay [12], the “combination Emax” value is 0.725.

In the case of `CC1(C)CCC(CN2CCN(c3ccc(C(=O)NS(=O)(=O)c4ccc(NCC5CCOCC5)c([N+](=O)[O-])c4)c(Oc4cnc5[nH]ccc5c4)c3)CC2)=C(c2ccc(Cl)cc2)C1` [Venetoclax] + C=CCn1c(=O)c2cnc(Nc3ccc(N4CCN(C)CC4)cc3)nc2n1-c1cccc(C(C)(C)O)n1 [AZD1775] (first compound max 1 µM, partner max 1 µM), the Bliss excess in assay [1] was -0.0325; in assay [2], 0.0156; in assay [3], -0.0321; in assay [4], 0.021; in assay [5], -0.0408; in assay [6], 0.0214. Moreover, the Bliss excess is 0.0109 in assay [7]; -0.0681 in [8]; 0.0301 in [9]; -0.0433 in [10]; 0.009 in assay [11]. The “combination Emax” value in [12] was found to be 0.856.

For `Cc1c2c(nn1C)CSCc1cc(n(C)n1)CSc1cc(c3ccccc3c1)OCCCc1c(C(=O)O)n(C)c3c-2c(Cl)ccc13` [AZD5991] + C[C@@H](Nc1cc(F)cc(F)c1)c1cc(C(=O)N(C)C)cc2c(=O)cc(N3CCOCC3)oc12 [AZD8186] (first compound max 1 µM, 7x7, partner max 3 µM), the Bliss excess in [1] is -0.008; in assay [2], -0.0029; in [3], -0.006; in assay [4] it was 0.0218; in assay [5], -0.0168; in assay [6], -0.0335. The Bliss excess was -0.0498 in assay [7]; 0.0043 in assay [8]; 0.0078 in assay [9]; -0.0051 in assay [10]; -0.0012 in assay [11]. For the same compound, the “combination Emax” value in assay [12] was 0.891.

Take `Cc1c2c(nn1C)CSCc1cc(n(C)n1)CSc1cc(c3ccccc3c1)OCCCc1c(C(=O)O)n(C)c3c-2c(Cl)ccc13` [AZD5991] + CC1(C)CCC(CN2CCN(c3ccc(C(=O)NS(=O)(=O)c4ccc(NCC5CCOCC5)c([N+](=O)[O-])c4)c(Oc4cnc5[nH]ccc5c4)c3)CC2)=C(c2ccc(Cl)cc2)C1 [Venetoclax] (first compound max 1 µM, 7x7, partner max 1 µM): the Bliss excess in assay [1] was -0.0145; in [2], -0.0149; in assay [3], 0.0093; in [4], 0.0312; in assay [5], -0.0304; in assay [6], -0.0436. For the same compound, the Bliss excess in assay [7] was 0.0865; in assay [8], 0.0196; in assay [9], 0.0262; in assay [10] it was -0.0226; in assay [11] it was 0.0049. Further, in [12], the “combination Emax” value came to 0.886.
